The subject of this series is CCRIS mutagenicity, Ames/micronucleus/aberration tests. As to the kind of experiment: CCRIS mutagenicity studies.
The mark [1] stands for this setting: Test System: AMES SALMONELLA TYPHIMURIUM, Strain/Indicator: TA98, Metabolic Activation: NONE, Method: STANDARD PLATE.
[2] abbreviates: Test System: AMES SALMONELLA TYPHIMURIUM, Strain/Indicator: TA98, Metabolic Activation: RAT, LIVER, S-9, AROCLOR 1254, Method: STANDARD PLATE.
The mark [3] stands for this setting: Test System: AMES SALMONELLA TYPHIMURIUM, Strain/Indicator: TA100, Metabolic Activation: NONE, Method: STANDARD PLATE.
[4] abbreviates: Test System: AMES SALMONELLA TYPHIMURIUM, Strain/Indicator: TA100, Metabolic Activation: RAT, LIVER, S-9, AROCLOR 1254, Method: STANDARD PLATE.
Setting [5] is: Test System: AMES SALMONELLA TYPHIMURIUM, Strain/Indicator: TA1535, Metabolic Activation: NONE, Method: STANDARD PLATE.
The mark [6] stands for this setting: Test System: AMES SALMONELLA TYPHIMURIUM, Strain/Indicator: TA1535, Metabolic Activation: RAT, LIVER, S-9, AROCLOR 1254, Method: STANDARD PLATE.
The mark [7] stands for this setting: Test System: AMES SALMONELLA TYPHIMURIUM, Strain/Indicator: TA1537, Metabolic Activation: NONE, Method: STANDARD PLATE.
The mark [8] stands for this setting: Test System: AMES SALMONELLA TYPHIMURIUM, Strain/Indicator: TA1537, Metabolic Activation: RAT, LIVER, S-9, AROCLOR 1254, Method: STANDARD PLATE.

Activity calls are given as the source filed them. No rule for the calls is given here.

For the compound `COc1cc(O)c2c(=O)c3cc(OC)ccc3oc2c1`, the mutagenic call by setting is: (Test System: AMES SALMONELLA TYPHIMURIUM, Strain/Indicator: TA97, Metabolic Activation: RAT, LIVER, S-9, PHENOBARBITAL AND 5,6-BENZOFLAVONE, Method: PREINCUBATION) “active; positive”; (Test System: AMES SALMONELLA TYPHIMURIUM, Strain/Indicator: TA98, Metabolic Activation: RAT, LIVER, S-9, PHENOBARBITAL AND 5,6-BENZOFLAVONE, Method: PREINCUBATION) “inactive; negative”; (Test System: AMES SALMONELLA TYPHIMURIUM, Strain/Indicator: TA100, Metabolic Activation: RAT, LIVER, S-9, PHENOBARBITAL AND 5,6-BENZOFLAVONE, Method: PREINCUBATION) “active; positive”; (Test System: AMES SALMONELLA TYPHIMURIUM, Strain/Indicator: TA2637, Metabolic Activation: RAT, LIVER, S-9, PHENOBARBITAL AND 5,6-BENZOFLAVONE, Method: PREINCUBATION) “active; positive”.

Regarding `NC(CO)C(=O)O` (configuration not stated), the mutagenic call (Test System: AMES SALMONELLA TYPHIMURIUM, Strain/Indicator: TA98, Metabolic Activation: RAT LIVER S-9, CHLOROPHENE, Method: STANDARD PLATE (COMPOUND HEATED AT 250 DEGREES CELSIUS FOR 20 MIN)) was “inactive; negative”.

Take `CCc1c2ccccc2c(C)c2c1ccc1ccccc12`: the mutagenic call is “inactive; negative” (Test System: AMES SALMONELLA TYPHIMURIUM, Strain/Indicator: TA98, Method: STANDARD PLATE); “inactive; negative” (Test System: AMES SALMONELLA TYPHIMURIUM, Strain/Indicator: TA100, Metabolic Activation: RAT, LIVER, S-9, PHENOBARBITAL, Method: STANDARD PLATE); “inactive; negative” (Test System: AMES SALMONELLA TYPHIMURIUM, Strain/Indicator: TA100, Method: STANDARD PLATE).

`Cc1ccccc1NS(=O)(=O)c1cccc2cccnc12`: the mutagenic call runs as follows: under setting [1], “inactive; negative”; under setting [2], “inactive; negative”; under setting [3], “inactive; negative”; under setting [4], “inactive; negative”; under setting [5], “inactive; negative”; under setting [6], “inactive; negative”. In addition, the mutagenic call was “inactive; negative” under setting [7] and “inactive; negative” under setting [8].

For `CCOC(=O)c1[nH]c2ccccc2c1N=Cc1ccc(C)cc1`, the mutagenic call is “inactive; negative” (Test System: AMES SALMONELLA TYPHIMURIUM, Strain/Indicator: TA97, Metabolic Activation: NONE, Method: STANDARD PLATE); “inactive; negative” (Test System: AMES SALMONELLA TYPHIMURIUM, Strain/Indicator: TA97, Metabolic Activation: RAT, LIVER, S-9, AROCLOR 1254, Method: STANDARD PLATE); “inactive; negative” under setting [1]; “inactive; negative” under setting [2]; “inactive; negative” under setting [3]; “inactive; negative” under setting [4]. Further, the mutagenic call (Test System: AMES SALMONELLA TYPHIMURIUM, Strain/Indicator: TA102, Metabolic Activation: NONE, Method: STANDARD PLATE) was “inactive; negative” and the mutagenic call (Test System: AMES SALMONELLA TYPHIMURIUM, Strain/Indicator: TA102, Metabolic Activation: RAT, LIVER, S-9, AROCLOR 1254, Method: STANDARD PLATE) was “inactive; negative”.

As to `COc1cc2c(cc1OC)CN(N=O)CC2`, the mutagenic call by setting is: (Test System: AMES SALMONELLA TYPHIMURIUM, Strain/Indicator: TA98, Metabolic Activation: RAT, LIVER, S-9, AROCLOR 1254, Method: PREINCUBATION) “active; positive”; (Test System: AMES SALMONELLA TYPHIMURIUM, Strain/Indicator: TA100, Metabolic Activation: RAT, LIVER, S-9, AROCLOR 1254, Method: PREINCUBATION) “active; positive”; (Test System: AMES SALMONELLA TYPHIMURIUM, Strain/Indicator: TA1535, Metabolic Activation: RAT, LIVER, S-9, AROCLOR 1254, Method: PREINCUBATION) “active; positive”; (Test System: AMES SALMONELLA TYPHIMURIUM, Strain/Indicator: TA1537, Metabolic Activation: RAT, LIVER, S-9, AROCLOR 1254, Method: PREINCUBATION) “active; positive”; (Test System: AMES SALMONELLA TYPHIMURIUM, Strain/Indicator: TA1538, Metabolic Activation: RAT, LIVER, S-9, AROCLOR 1254, Method: PREINCUBATION) “active; positive”.

As to `CCCCCCCCCCCC(=O)OCCS(=O)(=O)O`, the mutagenic call reads like this: (Test System: AMES SALMONELLA TYPHIMURIUM, Strain/Indicator: TA98, Metabolic Activation: HAMSTER, LIVER, S-9, AROCLOR 1254, Method: STANDARD PLATE) “inactive; negative”; under setting [1], “inactive; negative”; under setting [2], “inactive; negative”; (Test System: AMES SALMONELLA TYPHIMURIUM, Strain/Indicator: TA100, Metabolic Activation: HAMSTER, LIVER, S-9, AROCLOR 1254, Method: STANDARD PLATE) “inactive; negative”; under setting [3], “inactive; negative”; under setting [4], “inactive; negative”. Further, the mutagenic call is “inactive; negative” (Test System: AMES SALMONELLA TYPHIMURIUM, Strain/Indicator: TA1535, Metabolic Activation: HAMSTER, LIVER, S-9, AROCLOR 1254, Method: STANDARD PLATE); “inactive; negative” under setting [5]; “inactive; negative” under setting [6]; “inactive; negative” (Test System: AMES SALMONELLA TYPHIMURIUM, Strain/Indicator: TA1537, Metabolic Activation: HAMSTER, LIVER, S-9, AROCLOR 1254, Method: STANDARD PLATE); “inactive; negative” under setting [7]; “inactive; negative” under setting [8]. In addition, the mutagenic call (Test System: MOUSE LYMPHOMA, Strain/Indicator: L5178Y (TK+/TK-), Metabolic Activation: NONE, Method: SUSPENSION/PLATE) is “inactive; negative. reevaluation of results: negative” and the mutagenic call (Test System: MOUSE LYMPHOMA, Strain/Indicator: L5178Y (TK+/TK-), Metabolic Activation: RAT, LIVER, S-9, AROCLOR 1254, Method: SUSPENSION/PLATE) is “inactive; negative. reevaluation of results: negative”.

Turning to `CC(=O)Nc1ccc([C@@H]2O[C@@H]2C(=O)c2ccccc2)cc1`, the mutagenic call is “inactive; negative” under setting [1], “active; positive” under setting [2], “active; positive” under setting [3] and “active; positive” under setting [4].

Source of the values: PubChem BioAssay AID1259407 (Chemical Carcinogenesis Research Information System (CCRIS), 2018).
